Experimental data: patent US20070021414A1, “1-'2-(4-Hydroxyphenyl)-2-hydroxyethyl!-piperidin-4-ol compounds as nmda receptor antagonists” (PFIZER, INC., priority 2003, published 2007)
Structures can show the parent of a compound that is named as a salt.

Target: T1, HERG potassium channel (Homo sapiens, UniProt Q12809)
T1 construct: expressed in transfected cells; host or cells: HEK293S cells (membrane homogenate)
Test: Human Dofetilide Binding
Conditions: ratio of [3H]-dofetilide binding Ki (HERG transfected HEK293S membranes) to NR2B binding Ki
Description: Human BERG transfected HEK293S cells were prepared and grown in-house. The collected cells were suspended in 50 mM Tris-HCl (pH 7.4 at 4° C.) and homogenized using a hand held Polytron PT 1200 disruptor set at full power for 20 sec on ice. The homogenates were centrifuged at 48,000×g at 4° C. for 20 min. The pellets were then resuspended, homogenized, and centrifuged once more in the same manner. The final pellets were resuspended in an appropriate volume of 50 mM Tris-HCl, 10 mM KCl, 1 mM MgCl2 (pH 7.4 at 4° C.), homogenized, aliquoted and stored at −80° C. until use. An aliquot of membrane fractions was used for protein concentration determination using BCA protein assay kit (PIERCE) and ARVOsx plate reader (Wallac).
Binding assays were conducted in a total volume of 200 μl in 96-well plates. Twenty μl of test compounds were incubated with 20 μl of [^3H]-dofetilide (Amersham, final 5 nM) and 160 μl of membrane homogenate (25 μg protein) for 60 minutes at room temperature. Nonspecific binding was determined by 10 μM dofetilide at the final concentration. Incubation was terminated by rapid vacuum filtration over 0.5% presoaked GF/B Betaplate filter using Skatron cell harvester with 50 mM Tris-HCl, 10 mM KCl, 1 mM MgCl2, pH 7.4 at 4° C. The filters were dried, put into sample bags and filled with Betaplate Scint. Radioactivity bound to filter was counted with Wallac Betaplate counter.

T1 sequence (Q12809 whole entry): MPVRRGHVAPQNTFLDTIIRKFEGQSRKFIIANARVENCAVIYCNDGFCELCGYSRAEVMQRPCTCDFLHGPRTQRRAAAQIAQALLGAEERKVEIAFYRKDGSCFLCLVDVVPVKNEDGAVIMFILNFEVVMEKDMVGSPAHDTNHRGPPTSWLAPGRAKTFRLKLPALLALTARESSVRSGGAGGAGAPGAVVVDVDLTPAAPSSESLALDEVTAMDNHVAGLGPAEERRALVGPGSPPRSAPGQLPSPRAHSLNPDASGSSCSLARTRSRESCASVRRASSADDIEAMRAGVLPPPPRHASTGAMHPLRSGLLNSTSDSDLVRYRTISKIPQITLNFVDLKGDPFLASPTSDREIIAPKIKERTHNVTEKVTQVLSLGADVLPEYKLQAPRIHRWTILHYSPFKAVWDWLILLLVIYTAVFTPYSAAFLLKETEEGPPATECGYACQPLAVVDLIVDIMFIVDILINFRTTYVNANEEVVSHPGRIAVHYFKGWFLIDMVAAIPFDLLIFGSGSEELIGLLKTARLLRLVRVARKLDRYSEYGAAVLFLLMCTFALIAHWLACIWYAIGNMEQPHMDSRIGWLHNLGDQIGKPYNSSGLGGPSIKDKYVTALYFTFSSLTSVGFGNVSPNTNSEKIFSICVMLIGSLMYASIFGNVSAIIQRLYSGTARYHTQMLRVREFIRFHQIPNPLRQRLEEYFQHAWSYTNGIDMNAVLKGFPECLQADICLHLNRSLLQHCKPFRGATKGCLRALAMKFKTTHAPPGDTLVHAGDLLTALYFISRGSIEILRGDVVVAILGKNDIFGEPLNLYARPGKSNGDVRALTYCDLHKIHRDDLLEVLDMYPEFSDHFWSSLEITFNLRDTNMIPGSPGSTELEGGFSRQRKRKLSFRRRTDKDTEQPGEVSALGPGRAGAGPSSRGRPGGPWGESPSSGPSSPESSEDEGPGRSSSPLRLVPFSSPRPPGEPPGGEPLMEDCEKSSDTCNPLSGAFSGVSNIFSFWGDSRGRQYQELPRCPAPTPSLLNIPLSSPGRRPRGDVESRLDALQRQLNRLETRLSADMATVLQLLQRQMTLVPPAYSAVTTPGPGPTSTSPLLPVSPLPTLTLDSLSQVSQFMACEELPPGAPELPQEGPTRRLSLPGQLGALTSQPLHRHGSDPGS

| Structure (SMILES) | TI (Dofetilide Binding Ki [μM]/NR2B Binding Ki [nM]×1000) |
| --- | --- |
| Cc1cc([C@H](O)[C@H](C)N2CCC(O)(c3ccc(F)cc3)CC2)ccc1O [comparative compound A] | 220 |

Tested on: not given
Test: not given
Conditions: not given

| melting point [°C] | Structure (SMILES) |
| --- | --- |
| 198.8 | COc1ccc(C2(O)CCN(CC(O)c3ccc(O)cc3)CC2)cn1 (stereo not drawn) |
| 207 | Oc1cc(F)c(C(O)CN2CCC(O)(c3cccc(F)c3)CC2)cc1F (stereo not drawn) (as salt: hydrochloride) |
| 156.5 | COc1ccc(C2(O)CCN(CC(O)c3cc(C)c(O)cc3C)CC2)cn1 (stereo not drawn) |
| 214.3 | COc1ccc(C2(O)CCN(CC(O)c3ccc(O)c(Cl)c3)CC2)cn1.Cl (stereo not drawn) |
| 186.1 | Oc1ccc(C(O)CN2CCC(O)(c3cccc(F)c3)CC2)c(F)c1 (stereo not drawn) |
| 163.7 | Cc1cnc(C2(O)CCN(CC(O)c3ccc(O)c(C)c3)CC2)s1 (stereo not drawn) |
| 183.6 | COc1ccc(C2(O)CCN(CC(O)c3cc(C)c(O)cc3F)CC2)cn1 (stereo not drawn) |
| 166.3 | COCc1ccc(C2(O)CCN(CC(O)c3cc(C)c(O)cc3C)CC2)cc1 (stereo not drawn) |
| 176 | COc1ccc(C2(O)CCN(CC(O)c3ccc(O)c(C)c3)CC2)cn1 (stereo not drawn) |
| 178.3 | Cc1cc(C(O)CN2CCC(O)(c3ccc4c(c3)COCC4)CC2)ccc1O (stereo not drawn) |
| 189.3 | CCOc1ccc(C2(O)CCN(CC(O)c3ccc(O)c(C)c3)CC2)cn1 (stereo not drawn) |
| 187.4 | CCCOc1ccc(C2(O)CCN(CC(O)c3ccc(O)c(C)c3)CC2)cn1 (stereo not drawn) |
| 199.5 | COc1ccc(C2(O)CCN(CC(O)c3cc(F)c(O)cc3F)CC2)cn1 (stereo not drawn) (as salt: hydrochloride) |
| 190.5 | COc1ccc(C2(O)CCN(CC(O)c3ccc(O)cc3Cl)CC2)cn1 (stereo not drawn) |
| 169.6 | COCc1ccc(C2(O)CCN(CC(O)c3ccc(O)cc3)CC2)cc1 (stereo not drawn) |
| 186.1 | Oc1ccc(C(O)CN2CCC(O)(c3ccc4c(c3)COCC4)CC2)c(F)c1 (stereo not drawn) |
| 164.4 | COCc1ccc(C2(O)CCN(CC(O)c3ccc(O)c(C)c3)CC2)cc1 (stereo not drawn) |
| 161.7 | Cc1cc(C(O)CN2CCC(O)(c3cccc(F)c3)CC2)c(F)cc1O (stereo not drawn) |
| 172.3 | COc1ccc(C2(O)CCN(CC(O)c3ccc(O)c(C)c3)CC2)nc1F (stereo not drawn) |
| 154.2 | Oc1ccc(C(O)CN2CCC(O)(c3cccc(F)c3)CC2)cc1 (stereo not drawn) |
